Measurements from patent US20210395256A1, “TYROSINE KINASE INHIBITORS, COMPOSITIONS AND METHODS THERE OF” (Betta Pharmaceuticals Co., Ltd., priority 2018, published 2021).
Like-named read-outs stand apart in the source and are kept apart here.

Experiments:
CYP2C8 = biological target: T1, CYP2C8 (Homo sapiens, UniProt P10632); test: Cytochrome P450 inhibition, CYP2C8; type: in vitro ADME; conditions: probe Paclitaxel (5 μM); 10 μM compound, human liver microsomes, substrate Paclitaxel; read-out: Inhibition percentage CYP2C8 (Paclitaxel)
T1 construct: from tissue; host or cells: human liver microsomes
T1 sequence (P10632 1-490): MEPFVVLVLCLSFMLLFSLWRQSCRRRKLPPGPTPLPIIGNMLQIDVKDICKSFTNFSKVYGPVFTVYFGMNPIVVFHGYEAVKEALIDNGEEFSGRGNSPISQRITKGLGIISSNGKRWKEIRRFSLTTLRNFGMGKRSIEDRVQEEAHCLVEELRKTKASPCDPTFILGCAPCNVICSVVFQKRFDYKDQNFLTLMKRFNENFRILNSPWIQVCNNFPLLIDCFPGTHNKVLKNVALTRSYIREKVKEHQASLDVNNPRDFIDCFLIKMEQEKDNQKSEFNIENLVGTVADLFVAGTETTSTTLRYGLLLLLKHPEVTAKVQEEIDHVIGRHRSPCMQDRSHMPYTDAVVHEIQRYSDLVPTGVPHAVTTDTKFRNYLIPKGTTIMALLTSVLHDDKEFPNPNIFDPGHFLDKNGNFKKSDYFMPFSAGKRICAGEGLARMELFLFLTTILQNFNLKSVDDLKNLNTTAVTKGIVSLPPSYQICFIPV
Method: (§1) Example 205 Cytochrome P450 Measurements
(§2) The cytochrome P450 was measured as the following procedure:
(§3) 1) A master solution containing phosphate buffer, ultra-pure H2O, MgCl2 solution and human liver microsomes was made according to Table 17, and then 1 μL of 2 mM of compound solution or 1 μL of DMSO (as without inhibitor control) was added to the above master solution. The final concentration of test compounds or control compounds was 10 μM.
3) For CYP2C8 inhibition, 1 μL of specific drug substrate (Paclitaxel: 1 mM) was added at the final concentration of 5 μM to the above solution.
(§4) 8) The mixture was pre-warmed at 37° C. for 5 min. The reaction was started by the addition of 20 μL of 10 mM NADPH solution at the final concentration of 1 mM and carried out at 37° C.
(§5) 9) The reaction was stopped by addition of 300 μL of cold quench solution (methanol containing internal standards (1S, 500 nM Labetalol, 100 nM Alprazolam and 2 μM Ketoprofen) at the designated time points (Phenacetin: 20 min; Paclitaxel: 10 min; Tolbutamide: 20 min; (s)-Mephenytoin: 20 min; Midazolam: 5 min; Testosterone: 10 min). Samples were vortexed for 5 minutes and centrifuged at 3220 g for 40 minutes at 4° C. And then 100 μL of the supernatant was transferred to a new 96-well plate with 100 μL or 200 μL water (depends on the LC-MS signal response and peak shape) for LC-MS/MS analysis.
(§6) All experiments were performed in duplicates.
(§7) Inhibition percentages for compounds against CYP1A2, CYP2C8, CYP2C9, CYP2C19, and […]

CYP2C9 = biological target: T2, CYP2C9 (Homo sapiens, UniProt P11712); test: Cytochrome P450 inhibition, CYP2C9; type: in vitro ADME; conditions: probe Tolbutamide (200 μM); 10 μM compound, human liver microsomes, substrate Tolbutamide; read-out: Inhibition percentage CYP2C9 (Tolbutamide)
T2 construct: from tissue; host or cells: human liver microsomes
Method: as §1, §2, §3
4) For CYP2C9 inhibition, 1 μL of specific drug substrate (Tolbutamide: 40 mM) was added at the final concentration of 200 μM to the above solution.
as §4, §5, §6, §7

CYP2C19 = biological target: T3, CYP2C19 (Homo sapiens, UniProt P33261); test: Cytochrome P450 inhibition, CYP2C19; type: in vitro ADME; conditions: probe (s)-Mephenytoin (50 μM); 10 μM compound, human liver microsomes, substrate (s)-Mephenytoin; read-out: Inhibition percentage CYP2C19 ((s)-Mephenytoin)
T3 construct: from tissue; host or cells: human liver microsomes
Method: as §1, §2, §3
5) For CYP2C19 inhibition, 1 μL of specific drug substrate ((s)-Mephenytoin: 10 mM) was added at the final concentration of 50 μM to the above solution.
as §4, §5, §6, §7

TrkA kinase = TrkA kinase (Homo sapiens, UniProt P04629); test: TrkA kinase assay (mobility shift assay); type: biochemical; conditions: read-out: Trk A Kinase IC50
Procedure, shortened: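 Caliper mobility-shift readout of FAM-labelled peptide conversion by TrkA in 50 mM HEPES pH 7.5, 0.0015% Brij-35, with ATP; enzyme preincubated 10 min with compound (10-point dilution), reaction at 28 °C, EDTA stop. Inhibition relative to DMSO and no-enzyme controls; IC50 by four-parameter fit.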

T3 sequence (P33261 whole entry): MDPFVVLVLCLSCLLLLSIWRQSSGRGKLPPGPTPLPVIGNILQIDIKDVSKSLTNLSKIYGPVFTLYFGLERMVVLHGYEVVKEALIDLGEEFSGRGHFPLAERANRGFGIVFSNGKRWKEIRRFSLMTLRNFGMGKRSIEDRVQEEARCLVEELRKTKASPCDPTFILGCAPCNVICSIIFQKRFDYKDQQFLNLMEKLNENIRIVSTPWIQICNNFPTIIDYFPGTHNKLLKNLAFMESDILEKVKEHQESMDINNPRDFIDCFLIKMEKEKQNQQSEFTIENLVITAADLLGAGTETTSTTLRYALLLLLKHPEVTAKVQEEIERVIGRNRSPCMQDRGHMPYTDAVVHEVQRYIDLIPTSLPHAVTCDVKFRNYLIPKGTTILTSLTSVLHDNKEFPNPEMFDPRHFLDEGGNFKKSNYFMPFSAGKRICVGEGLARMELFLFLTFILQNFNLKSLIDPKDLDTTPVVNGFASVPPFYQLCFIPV
Sequence of TrkA kinase (P04629 33-796): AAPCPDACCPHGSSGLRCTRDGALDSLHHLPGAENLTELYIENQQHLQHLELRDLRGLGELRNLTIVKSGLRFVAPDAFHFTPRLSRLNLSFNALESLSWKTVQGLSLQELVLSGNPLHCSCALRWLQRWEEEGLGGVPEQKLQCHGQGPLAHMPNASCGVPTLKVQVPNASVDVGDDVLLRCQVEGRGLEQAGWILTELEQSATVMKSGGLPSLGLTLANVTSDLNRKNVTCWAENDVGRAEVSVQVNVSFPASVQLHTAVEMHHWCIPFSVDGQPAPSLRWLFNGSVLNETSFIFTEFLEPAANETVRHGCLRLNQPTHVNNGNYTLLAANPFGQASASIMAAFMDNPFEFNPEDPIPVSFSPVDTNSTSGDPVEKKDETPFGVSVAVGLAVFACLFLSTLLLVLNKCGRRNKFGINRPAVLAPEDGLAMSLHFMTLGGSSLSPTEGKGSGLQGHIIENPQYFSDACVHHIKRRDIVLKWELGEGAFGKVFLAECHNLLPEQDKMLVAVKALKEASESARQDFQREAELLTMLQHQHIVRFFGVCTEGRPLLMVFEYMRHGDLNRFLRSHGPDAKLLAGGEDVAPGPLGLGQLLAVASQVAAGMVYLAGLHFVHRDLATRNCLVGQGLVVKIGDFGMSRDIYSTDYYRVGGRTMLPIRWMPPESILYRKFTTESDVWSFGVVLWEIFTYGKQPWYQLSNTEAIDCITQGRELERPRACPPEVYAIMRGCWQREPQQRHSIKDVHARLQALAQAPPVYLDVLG
T2 sequence (P11712 whole entry): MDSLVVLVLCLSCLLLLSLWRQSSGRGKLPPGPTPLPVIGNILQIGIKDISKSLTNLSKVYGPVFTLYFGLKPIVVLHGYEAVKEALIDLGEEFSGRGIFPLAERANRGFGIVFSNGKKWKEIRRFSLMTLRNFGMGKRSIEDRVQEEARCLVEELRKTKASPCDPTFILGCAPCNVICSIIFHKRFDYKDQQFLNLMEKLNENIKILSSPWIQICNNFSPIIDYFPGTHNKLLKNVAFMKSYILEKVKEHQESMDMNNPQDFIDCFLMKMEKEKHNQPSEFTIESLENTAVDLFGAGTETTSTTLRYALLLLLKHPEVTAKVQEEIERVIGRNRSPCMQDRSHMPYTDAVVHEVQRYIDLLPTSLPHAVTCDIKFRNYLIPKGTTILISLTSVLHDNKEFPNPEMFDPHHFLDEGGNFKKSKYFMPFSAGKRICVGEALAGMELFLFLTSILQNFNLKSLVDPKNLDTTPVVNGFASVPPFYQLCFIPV

| SMILES | inhibition at 10 min, 10 µM (CYP2C8) [%] | inhibition at 20 min, 10 µM (CYP2C9) [%] | inhibition at 20 min, 10 µM (CYP2C19) [%] | IC50 (TrkA kinase; numeric values) [nM] | IC50 (TrkA kinase; class symbols) [nM] |
| --- | --- | --- | --- | --- | --- |
| Cc1nnc(-c2cnn3ccc(N4CCCC4c4cc(F)ccc4F)nc23)[nH]1 (centres unmarked) [Comparative compound A, 5-[2-(2,5-Difluorophenyl)pyrrolidin-1-yl]-3-(5-methyl-1H-1,2,4-triazol-3-yl)pyrazolo[1,5-a]pyrimidine, reference compound] | 19.3 | 25.4 | 13 |  |  |
| CC(C)(O)c1nnc(-c2cnn3ccc(N4CCC[C@@H]4c4cc(F)ccc4F)nc23)[nH]1 [Compound 7, (R)-2-(5-(5-(2-(2,5-difluorophenyl)pyrrolidin-1-yl)pyrazolo[1,5-a]pyrimidin-3-yl)-4H-1,2,4-triazol-3-yl)propan-2-ol] | 1.37 | 22.7 | 6.79 | 0.68 |  |
| OC1(c2nnc(-c3cnn4ccc(N5CCC[C@@H]5c5cc(F)ccc5F)nc34)[nH]2)CCC1 [Compound 23, (R)-1-(5-(5-(2-(2,5-difluorophenyl)pyrrolidin-1-yl)pyrazolo[1,5-a]pyrimidin-3-yl)-4H-1,2,4-triazol-3-yl)cyclobutan-1-ol] |  |  |  | 2.3 |  |
| CC(C)(O)Cc1nnc(-c2cnn3ccc(N4CCC[C@@H]4c4cc(F)ccc4F)nc23)[nH]1 [Compound 30, (R)-1-(5-(5-(2-(2,5-difluorophenyl)pyrrolidin-1-yl)pyrazolo[1,5-a]pyrimidin-3-yl)-4H-1,2,4-triazol-3-yl)-2-methylpropan-2-ol] |  |  |  | 4.9 |  |
| OC1CC(c2nnc(-c3cnn4ccc(N5CCC[C@@H]5c5cc(F)ccc5F)nc34)[nH]2)C1 (stereo partly drawn) [Compound 31, (R)-3-(5-(5-(2-(2,5-difluorophenyl)pyrrolidin-1-yl)pyrazolo[1,5-a]pyrimidin-3-yl)-4H-1,2,4-triazol-3-yl)cyclobutan-1-ol] |  |  |  | 2.3 |  |
| OC(c1nnc(-c2cnn3ccc(N4CCC[C@@H]4c4cc(F)ccc4F)nc23)[nH]1)C(F)(F)F (stereo partly drawn) [Compound 47, 1-(5-(5-((R)-2-(2,5-difluorophenyl)pyrrolidin-1-yl)pyrazolo[1,5-a]pyrimidin-3-yl)-4H-1,2,4-triazol-3-yl)-2,2,2-trifluoroethan-1-ol] | 32.8 | 50.4 | 20.3 | 3.23 |  |

Now from value to compound:

| inhibition at 10 min, 10 µM (CYP2C8) [%] | inhibition at 20 min, 10 µM (CYP2C9) [%] | inhibition at 20 min, 10 µM (CYP2C19) [%] | IC50 (TrkA kinase; numeric values) [nM] | IC50 (TrkA kinase; class symbols) [nM] | SMILES |
| --- | --- | --- | --- | --- | --- |
| 18.2 | 5.96 | 7.23 | 1.37 |  | C[C@H](O)c1nnc(-c2cnn3ccc(N4CCC[C@@H]4c4cc(F)ccc4F)nc23)[nH]1 [Compound 4, (S)-1-(5-(5-((R)-2-(2,5-difluorophenyl)pyrrolidin-1-yl)pyrazolo[1,5-a]pyrimidin-3-yl)-4H-1,2,4-triazol-3-yl)ethan-1-ol] |
|  |  |  |  | ≤ 10 | C[C@H](N)c1nnc(-c2cnn3ccc(N4CCC[C@@H]4c4cc(F)ccc4F)nc23)[nH]1 [Compound 11, (S)-1-(5-(5-((R)-2-(2,5-difluorophenyl)pyrrolidin-1-yl)pyrazolo[1,5-a]pyrimidin-3-yl)-4H-1,2,4-triazol-3-yl)ethan-1-amine] |
|  |  |  | 1.26 |  | C[C@@H](CO)c1nnc(-c2cnn3ccc(N4CCC[C@@H]4c4cc(F)ccc4F)nc23)[nH]1 [Compound 39, (R)-2-(5-(5-((R)-2-(2,5-difluorophenyl)pyrrolidin-1-yl)pyrazolo[1,5-a]pyrimidin-3-yl)-4H-1,2,4-triazol-3-yl)propan-1-ol] |
